From patent US11053204B2, “Pyrimidinyloxy benzene derivatives as herbicides” (FMC Corporation, priority 2015, dated 2021)

Columns and labels:
Format in all cases: in vivo
[1] = test system: geranium, cutleaf (cutleaf geranium, Geranium dissectum); assay: Test C postemergence, plant response rating; settings: for Geranium, Cutleaf plant response rating: scale 0 to 100 (0 no effect, 100 complete control)
Outline: (§1)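 Preemergence: seeds sown in loam–sand blend or silt loam and sprayed with test chemicals in a non-phytotoxic surfactant-containing solvent. Postemergence: potted plants at 2–18 cm (1–4-leaf stage) sprayed with the same formulation. After 13–15 d in greenhouse, visual rating versus controls on 0 (no effect) to 100 (complete control) scale.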

[2] = test system: buckwheat, wild (wild buckwheat, Polygonum convolvulus); assay: Test C postemergence, plant response rating; settings: for Buckwheat, Wild plant response rating: scale 0 to 100 (0 no effect, 100 complete control)
Outline: as §1

[3] = test system: nightshade (eastern black nightshade, Solanum ptycanthum); assay: Test C postemergence, plant response rating; settings: for Nightshade plant response rating: scale 0 to 100 (0 no effect, 100 complete control)
Outline: as §1

[4] = test system: Canada thistle (Cirsium arvense); assay: Test C postemergence, plant response rating; settings: for Canada Thistle plant response rating: scale 0 to 100 (0 no effect, 100 complete control)
Outline: as §1

[5] = test system: field poppy (Papaver rhoeas); assay: Test C postemergence, plant response rating; settings: for Field Poppy plant response rating: scale 0 to 100 (0 no effect, 100 complete control)
Outline: as §1

[6] = test system: wild mustard (Sinapis arvensis); assay: Test C postemergence, plant response rating; settings: for Mustard, Wild plant response rating: scale 0 to 100 (0 no effect, 100 complete control)
Outline: as §1

[7] = test system: johnsongrass (Sorghum halepense); assay: Test C postemergence, plant response rating; settings: for Johnsongrass plant response rating: scale 0 to 100 (0 no effect, 100 complete control)
Outline: as §1

[8] = test system: pigweed, palmer (palmer pigweed, Amaranthus palmeri); assay: Test C postemergence, plant response rating; settings: for Pigweed, Palmer plant response rating: scale 0 to 100 (0 no effect, 100 complete control)
Outline: as §1

[9] = test system: windgrass (Apera spica-venti); assay: Test C postemergence, plant response rating
Outline: as §1

[10] = test system: field violet (Viola arvensis); assay: Test C postemergence, plant response rating; settings: for Field Violet plant response rating: scale 0 to 100 (0 no effect, 100 complete control)
Outline: as §1

[11] = test system: speedwell (bird's-eye speedwell, Veronica persica); assay: Test C postemergence, plant response rating; settings: for Speedwell plant response rating: scale 0 to 100 (0 no effect, 100 complete control)
Outline: as §1

[12] = test system: wild poinsettia (Euphorbia heterophylla); assay: Test C postemergence, plant response rating; settings: for Poinsettia, Wild plant response rating: scale 0 to 100 (0 no effect, 100 complete control)
Outline: as §1

[13] = test system: surinam grass (Brachiaria decumbens); assay: Test C postemergence, plant response rating
Outline: as §1

[14] = test system: kochia (Kochia scoparia); assay: Test C preemergence, plant response rating
[15] = test system: pigweed, palmer (palmer pigweed, Amaranthus palmeri); assay: Test C preemergence, plant response rating
[16] = test system: wild poinsettia (Euphorbia heterophylla); assay: Test C preemergence, plant response rating
[17] = test system: oat, wild (wild oat Avena fatua); assay: Test C preemergence, plant response rating
[18] = test system: windgrass (Apera spica-venti); assay: Test C preemergence, plant response rating
[19] = test system: johnsongrass (Sorghum halepense); assay: Test C preemergence, plant response rating
[20] = 125 g ai/ha, scale 0 to 100 (0 no effect, 100 complete control)

**Q.** With `O=C(CCC(F)(F)C(F)(F)F)c1c(Br)cccc1Oc1ncc(Cl)cn1` [Compound 110] as the compound, how does the “Plant response rating, Geranium, Cutleaf” value ([1]; 16 g ai/ha, scale of 0 to 100) read?
**A.** 5

**Q.** And the “Plant response rating, Geranium, Cutleaf” value ([1]; 31 g ai/ha, scale 0 to 100)?
**A.** 30

**Q.** And the “Geranium, Cutleaf plant response rating” value ([1]; 62 g ai/ha)?
**A.** 40

**Q.** And the “Geranium, Cutleaf plant response rating” value ([1]; 125 g ai/ha)?
**A.** 60

**Q.** What about the “Plant response rating, Buckwheat, Wild” value ([2]; 16 g ai/ha, scale of 0 to 100) of the same compound?
**A.** 85

**Q.** What about the “Plant response rating, Buckwheat, Wild” value ([2]; 31 g ai/ha, scale 0 to 100) of the same compound?
**A.** 85

**Q.** What about the “Buckwheat, Wild plant response rating” value ([2]; 62 g ai/ha) of the same compound?
**A.** 95

**Q.** And the “Buckwheat, Wild plant response rating” value ([2]; 125 g ai/ha)?
**A.** 80

**Q.** And the “Plant response rating, Nightshade” value ([3]; 16 g ai/ha, scale of 0 to 100)?
**A.** 75

**Q.** What about the “Plant response rating, Nightshade” value ([3]; 31 g ai/ha, scale 0 to 100) of the same compound?
**A.** 85

**Q.** What about the “Nightshade plant response rating” value ([3]; 62 g ai/ha) of the same compound?
**A.** 95

**Q.** What about the “Nightshade plant response rating” value ([3]; 125 g ai/ha) of the same compound?
**A.** 98

**Q.** What about the “Plant response rating, Canada Thistle” value ([4]; 16 g ai/ha, scale of 0 to 100) of the same compound?
**A.** 65

**Q.** And the “Plant response rating, Canada Thistle” value ([4]; 31 g ai/ha, scale 0 to 100)?
**A.** 90

**Q.** What about the “Canada Thistle plant response rating” value ([4]; 62 g ai/ha) of the same compound?
**A.** 98

**Q.** What about the “Canada Thistle plant response rating” value ([4]; 125 g ai/ha) of the same compound?
**A.** 95

**Q.** And the “Plant response rating, Field Poppy” value ([5]; 16 g ai/ha, scale of 0 to 100)?
**A.** 85

**Q.** And the “Plant response rating, Field Poppy” value ([5]; 31 g ai/ha, scale 0 to 100)?
**A.** 100

**Q.** What about the “Field Poppy plant response rating” value ([5]; 62 g ai/ha) of the same compound?
**A.** 100

**Q.** What about the “Field Poppy plant response rating” value ([5]; 125 g ai/ha) of the same compound?
**A.** 100

**Q.** And the “Plant response rating, Mustard, Wild” value ([6]; 16 g ai/ha, scale of 0 to 100)?
**A.** 90

**Q.** What about the “Plant response rating, Mustard, Wild” value ([6]; 31 g ai/ha, scale 0 to 100) of the same compound?
**A.** 90

**Q.** What about the “Mustard, Wild plant response rating” value ([6]; 62 g ai/ha) of the same compound?
**A.** 100

**Q.** And the “Mustard, Wild plant response rating” value ([6]; 125 g ai/ha)?
**A.** 100

**Q.** What about the “Plant response rating, Johnsongrass” value ([7]; 16 g ai/ha, scale of 0 to 100) of the same compound?
**A.** 5

**Q.** And the “Plant response rating, Johnsongrass” value ([7]; 31 g ai/ha, scale 0 to 100)?
**A.** 10

**Q.** And the “Johnsongrass plant response rating” value ([7]; 62 g ai/ha)?
**A.** 10

**Q.** What about the “Johnsongrass plant response rating” value ([7]; 125 g ai/ha) of the same compound?
**A.** 15

**Q.** And the “Plant response rating, Pigweed, Palmer” value ([8]; 16 g ai/ha, scale of 0 to 100)?
**A.** 75

**Q.** And the “Plant response rating, Pigweed, Palmer” value ([8]; 31 g ai/ha, scale 0 to 100)?
**A.** 95

**Q.** What about the “Pigweed, Palmer plant response rating” value ([8]; 62 g ai/ha) of the same compound?
**A.** 98

**Q.** What about the “Pigweed, Palmer plant response rating” value ([8]; 125 g ai/ha) of the same compound?
**A.** 95

**Q.** What about the “Plant response rating, Windgrass” value ([9]; 16 g ai/ha, scale of 0 to 100) of the same compound?
**A.** 20

**Q.** And the “Plant response rating, Windgrass” value ([9]; 31 g ai/ha, scale 0 to 100)?
**A.** 25

**Q.** What about the “Windgrass plant response rating” value [9, 20] of the same compound?
**A.** 30

**Q.** And the “Plant response rating, Field Violet” value ([10]; 16 g ai/ha, scale of 0 to 100)?
**A.** 80

**Q.** What about the “Plant response rating, Field Violet” value ([10]; 31 g ai/ha, scale 0 to 100) of the same compound?
**A.** 95

**Q.** What about the “Field Violet plant response rating” value ([10]; 62 g ai/ha) of the same compound?
**A.** 95

**Q.** What about the “Field Violet plant response rating” value ([10]; 125 g ai/ha) of the same compound?
**A.** 100

**Q.** What about the “Plant response rating, Speedwell” value ([11]; 16 g ai/ha, scale of 0 to 100) of the same compound?
**A.** 60

**Q.** And the “Plant response rating, Speedwell” value ([11]; 31 g ai/ha, scale 0 to 100)?
**A.** 95

**Q.** And the “Speedwell plant response rating” value ([11]; 62 g ai/ha)?
**A.** 90

**Q.** And the “Speedwell plant response rating” value ([11]; 125 g ai/ha)?
**A.** 95

**Q.** And the “Plant response rating, Poinsettia, Wild” value ([12]; 16 g ai/ha, scale of 0 to 100)?
**A.** 40

**Q.** And the “Plant response rating, Poinsettia, Wild” value ([12]; 31 g ai/ha, scale 0 to 100)?
**A.** 65

**Q.** What about the “Poinsettia, Wild plant response rating” value ([12]; 62 g ai/ha) of the same compound?
**A.** 80

**Q.** What about the “Poinsettia, Wild plant response rating” value ([12]; 125 g ai/ha) of the same compound?
**A.** 90

**Q.** And the “Plant response rating, Surinam Grass” value ([13]; 16 g ai/ha, scale of 0 to 100)?
**A.** 15

**Q.** And the “Plant response rating, Surinam Grass” value ([13]; 31 g ai/ha, scale 0 to 100)?
**A.** 20

**Q.** What about the “Surinam Grass plant response rating” value [13, 20] of the same compound?
**A.** 25

**Q.** `C=C(Br)COC(=O)c1c(Br)cccc1Oc1ncc(Cl)cn1` [Compound 61] was tested. Which “Plant response rating, Kochia” value ([14]; 16 g ai/ha, scale 0 to 100) did it give?
**A.** 0

**Q.** What about the “Plant response rating, Kochia” value ([14]; 31 g ai/ha, scale 0 to 100) of the same compound?
**A.** 5

**Q.** What about the “Plant response rating, Kochia” value ([14]; 62 g ai/ha, scale 0 to 100) of the same compound?
**A.** 5

**Q.** And the “Plant response rating, Kochia” value ([14]; 125 g ai/ha, scale of 0 to 100)?
**A.** 30

**Q.** What about the “Plant response rating, Pigweed, Palmer” value ([15]; 16 g ai/ha, scale 0 to 100) of the same compound?
**A.** 40

**Q.** And the “Plant response rating, Pigweed, Palmer” value ([15]; 31 g ai/ha, scale 0 to 100)?
**A.** 50

**Q.** What about the “Plant response rating, Pigweed, Palmer” value ([15]; 62 g ai/ha, scale 0 to 100) of the same compound?
**A.** 70

**Q.** What about the “Plant response rating, Pigweed, Palmer” value ([15]; 125 g ai/ha, scale of 0 to 100) of the same compound?
**A.** 75

**Q.** And the “Plant response rating, Poinsettia, Wild” value ([16]; 16 g ai/ha, scale 0 to 100)?
**A.** 0

**Q.** What about the “Plant response rating, Poinsettia, Wild” value ([16]; 31 g ai/ha, scale 0 to 100) of the same compound?
**A.** 0

**Q.** What about the “Plant response rating, Poinsettia, Wild” value ([16]; 62 g ai/ha, scale 0 to 100) of the same compound?
**A.** 0

**Q.** What about the “Plant response rating, Poinsettia, Wild” value ([16]; 125 g ai/ha, scale of 0 to 100) of the same compound?
**A.** 0

**Q.** What about the “Plant response rating, Oat, Wild” value ([17]; 16 g ai/ha, scale 0 to 100) of the same compound?
**A.** 0

**Q.** What about the “Plant response rating, Oat, Wild” value ([17]; 31 g ai/ha, scale 0 to 100) of the same compound?
**A.** 0

**Q.** And the “Plant response rating, Oat, Wild” value ([17]; 62 g ai/ha, scale 0 to 100)?
**A.** 5

**Q.** And the “Plant response rating, Oat, Wild” value ([17]; 125 g ai/ha, scale of 0 to 100)?
**A.** 5

**Q.** And the “Plant response rating, Windgrass” value ([18]; 16 g ai/ha, scale 0 to 100)?
**A.** 0

**Q.** And the “Plant response rating, Windgrass” value ([18]; 31 g ai/ha, scale 0 to 100)?
**A.** 5

**Q.** And the “Plant response rating, Windgrass” value ([18]; 62 g ai/ha, scale 0 to 100)?
**A.** 40

**Q.** What about the “Plant response rating, Windgrass” value ([18]; 125 g ai/ha, scale of 0 to 100) of the same compound?
**A.** 70

**Q.** What about the “Plant response rating, Johnsongrass” value ([19]; 16 g ai/ha, scale 0 to 100) of the same compound?
**A.** 0

**Q.** And the “Plant response rating, Johnsongrass” value ([19]; 31 g ai/ha, scale 0 to 100)?
**A.** 0

**Q.** And the “Plant response rating, Johnsongrass” value ([19]; 62 g ai/ha, scale 0 to 100)?
**A.** 0

**Q.** What about the “Plant response rating, Johnsongrass” value ([19]; 125 g ai/ha, scale of 0 to 100) of the same compound?
**A.** 20
